Experimental data published in patent US20240270762A1, “PENICILLIN-BINDING PROTEIN INHIBITORS” (priority 2021, published 2024).
Values after ≈ are worked out from the molar mass of the structure shown.

Assays:
[1] = biological target: T1, PBP1a from Acinetobacter baumannii (ATCC 19606) (Acinetobacter baumannii, UniProt A0ABX6CK30); assay: Bocillin-FL fluorescence polarization competition binding, A. baumannii PBP1a; settings: fluorescence polarization competition binding assay using Bocillin-FL; read-out: A. baumannii PBP1a Potency
T1 sequence (A0ABX6CK30 1-851): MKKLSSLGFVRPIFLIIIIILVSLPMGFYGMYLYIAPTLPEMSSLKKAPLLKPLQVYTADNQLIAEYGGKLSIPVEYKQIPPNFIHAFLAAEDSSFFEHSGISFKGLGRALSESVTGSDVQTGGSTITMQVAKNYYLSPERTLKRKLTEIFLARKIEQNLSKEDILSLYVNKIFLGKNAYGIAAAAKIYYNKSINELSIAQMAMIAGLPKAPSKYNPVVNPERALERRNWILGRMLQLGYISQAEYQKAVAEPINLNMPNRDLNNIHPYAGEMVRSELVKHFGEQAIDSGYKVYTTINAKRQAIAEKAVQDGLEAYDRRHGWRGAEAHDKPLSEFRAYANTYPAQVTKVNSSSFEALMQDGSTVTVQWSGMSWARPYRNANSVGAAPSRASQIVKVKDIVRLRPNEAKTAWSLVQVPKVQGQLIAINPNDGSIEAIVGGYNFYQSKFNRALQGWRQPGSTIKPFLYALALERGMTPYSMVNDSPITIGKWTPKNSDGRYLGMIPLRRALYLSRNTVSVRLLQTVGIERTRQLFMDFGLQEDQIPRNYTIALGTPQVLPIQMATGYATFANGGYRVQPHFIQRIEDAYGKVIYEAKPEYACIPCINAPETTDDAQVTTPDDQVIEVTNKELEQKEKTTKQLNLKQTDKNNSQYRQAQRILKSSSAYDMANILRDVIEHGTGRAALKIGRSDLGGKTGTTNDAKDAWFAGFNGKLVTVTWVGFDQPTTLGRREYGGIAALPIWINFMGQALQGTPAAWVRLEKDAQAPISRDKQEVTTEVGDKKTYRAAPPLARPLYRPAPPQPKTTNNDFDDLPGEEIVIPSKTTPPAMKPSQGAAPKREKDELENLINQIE
Procedure, shortened: (§1)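 Purified PBPs pre-incubated with inhibitor (E. coli PBP3 1.5 μM, 30 min; P. aeruginosa PBP3 0.75 μM, A. baumannii PBP1a 1 μM and PBP3 0.2 μM, 15 min), then Bocillin-FL 0.1 μM (0.05 μM for PBP1a) added; FP read up to 60 min. EC50 = concentration halving bound Bocillin-FL.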

[2] = biological target: T2, PBP3 from Acinetobacter baumannii (ATCC 19606) (Acinetobacter baumannii, UniProt A0ABX6CK25); assay: Bocillin-FL fluorescence polarization competition binding, A. baumannii PBP3; settings: fluorescence polarization competition binding assay using Bocillin-FL; read-out: A. baumannii PBP3 Potency
T2 sequence (A0ABX6CK25 64-610): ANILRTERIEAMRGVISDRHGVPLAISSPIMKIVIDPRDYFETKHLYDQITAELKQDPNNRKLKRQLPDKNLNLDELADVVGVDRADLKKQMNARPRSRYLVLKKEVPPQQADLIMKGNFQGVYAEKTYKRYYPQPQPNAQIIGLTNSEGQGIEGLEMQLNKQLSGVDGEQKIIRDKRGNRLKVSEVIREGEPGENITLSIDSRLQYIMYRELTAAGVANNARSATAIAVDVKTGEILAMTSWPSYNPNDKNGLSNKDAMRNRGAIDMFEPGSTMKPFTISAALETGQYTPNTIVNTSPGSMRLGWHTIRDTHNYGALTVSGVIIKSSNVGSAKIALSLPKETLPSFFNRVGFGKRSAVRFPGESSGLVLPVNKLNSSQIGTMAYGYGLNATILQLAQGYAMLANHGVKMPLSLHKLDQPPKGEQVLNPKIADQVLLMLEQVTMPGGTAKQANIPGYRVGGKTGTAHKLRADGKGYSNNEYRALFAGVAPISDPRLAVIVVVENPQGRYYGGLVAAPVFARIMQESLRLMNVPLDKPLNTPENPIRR
Procedure, shortened: as §1

A. baumannii ATCC 17978 = assay: microbe, parasite or virus in culture; type: cell-based; settings: Acinetobacter baumannii, ATCC17978, read-out: MIC, A. baumannii ATCC 17978

| Structure (SMILES) | IC50 [1] [µM] | IC50 [2] [µM] | MIC (A. baumannii ATCC 17978) [µg/mL] |
| --- | --- | --- | --- |
| O=C(NCCCN1CCN(C(=O)N[C@@H](C(=O)N[C@H]2Cc3ccc(F)c(C(=O)O)c3OB2O)c2cc(F)c(O)c(O)c2Cl)C1=O)c1ccccc1 [Example 253, (R)-3-((R)-2-(3-(3-benzamidopropyl)-2-oxoimidazolidine-1-carboxamido)-2-(2-chloro-5-fluoro-3,4-dihydroxyphenyl)acetamido)-7-fluoro-2-hydroxy-3,4-dihydro-2H-benzo[e][1,2]oxaborinine-8-carboxylic acid] | > 250 | < 10 | < 1 |
| O=C(NCCCN1CCN(C(=O)N[C@H](C(=O)N[C@H]2Cc3ccc(F)c(C(=O)O)c3OB2O)c2cc(F)c(O)c(O)c2Cl)C1=O)c1cccc(O)c1 [Example 254, (R)-3-((S)-2-(2-chloro-5-fluoro-3,4-dihydroxyphenyl)-2-(3-(3-(3-hydroxybenzamido)propyl)-2-oxoimidazolidine-1-carboxamido)acetamido)-7-fluoro-2-hydroxy-3,4-dihydro-2H-benzo[e][1,2]oxaborinine-8-carboxylic acid] | > 250 | 10 to 50 | 2 to 4 (≈ 2.73 to 5.47 µM) |
| O=C(NCCCN1CCN(C(=O)N[C@@H](C(=O)N[C@H]2Cc3ccc(F)c(C(=O)O)c3OB2O)c2cc(F)c(O)c(O)c2Cl)C1=O)c1cccc(O)c1 [Example 255, (R)-3-((R)-2-(2-chloro-5-fluoro-3,4-dihydroxyphenyl)-2-(3-(3-(3-hydroxybenzamido)propyl)-2-oxoimidazolidine-1-carboxamido)acetamido)-7-fluoro-2-hydroxy-3,4-dihydro-2H-benzo[e][1,2]oxaborinine-8-carboxylic acid] | > 250 | < 10 | < 1 |
| O=C(NCCCN1CCN(C(=O)NC(C(=O)N[C@H]2Cc3ccc(F)c(C(=O)O)c3OB2O)c2cc(F)c(O)c(O)c2Cl)C1=O)c1ccncc1 (stereo partly drawn) [Example 256, (3R)-3-(2-(2-chloro-5-fluoro-3,4-dihydroxyphenyl)-2-(3-(3-(isonicotinamido)propyl)-2-oxoimidazolidine-1-carboxamido)acetamido)-7-fluoro-2-hydroxy-3,4-dihydro-2H-benzo[e][1,2]oxaborinine-8-carboxylic acid] | > 250 | < 10 | < 1 |
| O=C(NCCCN1CCN(C(=O)NC(C(=O)N[C@H]2Cc3ccc(F)c(C(=O)O)c3OB2O)c2cc(F)c(O)c(O)c2Cl)C1=O)c1nccs1 (stereo partly drawn) [Example 257, (3R)-3-(2-(2-chloro-5-fluoro-3,4-dihydroxyphenyl)-2-(2-oxo-3-(3-(thiazole-2-carboxamido)propyl)imidazolidine-1-carboxamido)acetamido)-7-fluoro-2-hydroxy-3,4-dihydro-2H-benzo[e][1,2]oxaborinine-8-carboxylic acid] | > 250 | < 10 | < 1 |
| O=C(NCCCN1CCN(C(=O)N[C@@H](C(=O)N[C@H]2Cc3ccc(F)c(C(=O)O)c3OB2O)c2cc(F)c(O)c(O)c2Cl)C1=O)Nc1cccc(O)c1 [Example 258, (R)-3-((R)-2-(2-chloro-5-fluoro-3,4-dihydroxyphenyl)-2-(3-(3-(3-(3-hydroxyphenyl)ureido)propyl)-2-oxoimidazolidine-1-carboxamido)acetamido)-7-fluoro-2-hydroxy-3,4-dihydro-2H-benzo[e][1,2]oxaborinine-8-carboxylic acid] | > 250 | < 10 | < 1 |
| O=C(NCCCN1CCN(C(=O)NC(C(=O)N[C@H]2Cc3ccc(F)c(C(=O)O)c3OB2O)c2cc(F)c(O)c(O)c2Cl)C1=O)Nc1cccnc1 (stereo partly drawn) [Example 259, (3R)-3-(2-(2-chloro-5-fluoro-3,4-dihydroxyphenyl)-2-(2-oxo-3-(3-(3-(pyridin-3-yl)ureido)propyl)imidazolidine-1-carboxamido)acetamido)-7-fluoro-2-hydroxy-3,4-dihydro-2H-benzo[e][1,2]oxaborinine-8-carboxylic acid] | > 250 | < 10 | < 1 |
| O=C(NCCS(=O)(=O)N1CCN(C(=O)NC(C(=O)N[C@H]2Cc3ccc(F)c(C(=O)O)c3OB2O)c2cc(F)c(O)c(O)c2Cl)C1=O)c1ccccc1 (stereo partly drawn) [Example 260, (3R)-3-(2-(3-((2-benzamidoethyl)sulfonyl)-2-oxoimidazolidine-1-carboxamido)-2-(2-chloro-5-fluoro-3,4-dihydroxyphenyl)acetamido)-7-fluoro-2-hydroxy-3,4-dihydro-2H-benzo[e][1,2]oxaborinine-8-carboxylic acid] | > 250 | < 10 | < 1 |
| O=C(NCCS(=O)(=O)N1CCN(C(=O)NC(C(=O)N[C@H]2Cc3ccc(F)c(C(=O)O)c3OB2O)c2cc(F)c(O)c(O)c2Cl)C1=O)c1cccc(O)c1 (stereo partly drawn) [Example 261, (3R)-3-(2-(2-chloro-5-fluoro-3,4-dihydroxyphenyl)-2-(3-((2-(3-hydroxybenzamido)ethyl)sulfonyl)-2-oxoimidazolidine-1-carboxamido)acetamido)-7-fluoro-2-hydroxy-3,4-dihydro-2H-benzo[e][1,2]oxaborinine-8-carboxylic acid] | > 250 | < 10 | < 1 |
| O=C(NCCS(=O)(=O)N1CCN(C(=O)NC(C(=O)N[C@H]2Cc3ccc(F)c(C(=O)O)c3OB2O)c2cc(F)c(O)c(O)c2Cl)C1=O)c1cccnc1 (stereo partly drawn) [Example 262, (3R)-3-(2-(2-chloro-5-fluoro-3,4-dihydroxyphenyl)-2-(3-((2-(nicotinamido)ethyl)sulfonyl)-2-oxoimidazolidine-1-carboxamido)acetamido)-7-fluoro-2-hydroxy-3,4-dihydro-2H-benzo[e][1,2]oxaborinine-8-carboxylic acid] | > 250 | < 10 | < 1 |
| O=C(NCCS(=O)(=O)N1CCN(C(=O)N[C@H](C(=O)N[C@H]2Cc3ccc(F)c(C(=O)O)c3OB2O)c2cc(F)c(O)c(O)c2Cl)C1=O)c1nccs1 [Example 263, (R)-3-((S)-2-(2-chloro-5-fluoro-3,4-dihydroxyphenyl)-2-(2-oxo-3-((2-(thiazole-2-carboxamido)ethyl)sulfonyl)imidazolidine-1-carboxamido)acetamido)-7-fluoro-2-hydroxy-3,4-dihydro-2H-benzo[e][1,2]oxaborinine-8-carboxylic acid] | > 250 | 10 to 50 | < 1 |
| O=C(NCCS(=O)(=O)N1CCN(C(=O)N[C@@H](C(=O)N[C@H]2Cc3ccc(F)c(C(=O)O)c3OB2O)c2cc(F)c(O)c(O)c2Cl)C1=O)c1nccs1 [Example 264, (R)-3-((R)-2-(2-chloro-5-fluoro-3,4-dihydroxyphenyl)-2-(2-oxo-3-((2-(thiazole-2-carboxamido)ethyl)sulfonyl)imidazolidine-1-carboxamido)acetamido)-7-fluoro-2-hydroxy-3,4-dihydro-2H-benzo[e][1,2]oxaborinine-8-carboxylic acid] | > 250 | < 10 | < 1 |
| O=C(O)c1c(F)ccc2c1OB(O)[C@@H](NC(=O)C(NC(=O)N1CCN(S(=O)(=O)CCNC(=O)[C@@H]3CCCN3)C1=O)c1cc(F)c(O)c(O)c1Cl)C2 (stereo partly drawn) [Example 265, (3R)-3-(2-(2-chloro-5-fluoro-3,4-dihydroxyphenyl)-2-(2-oxo-3-((2-((S)-pyrrolidine-2-carboxamido)ethyl)sulfonyl)imidazolidine-1-carboxamido)acetamido)-7-fluoro-2-hydroxy-3,4-dihydro-2H-benzo[e][1,2]oxaborinine-8-carboxylic acid] | > 250 | < 10 | < 1 |
